These results are taken from ChEMBL document CHEMBL1154822, “Synthesis and antiproliferative activity of 7-azaindirubin-3'-oxime, a 7-aza isostere of the natural indirubin pharmacophore” (J Nat Prod, 2009).

Each structure is given as a SMILES string.

Common to all, as to type: functional
Experiment [1] has as its system IGROV-1. In words: Cytotoxicity against human IGROV1 cells assessed as cell growth at 1 uM after 1 to 11 days by MTT assay. Conditions: read-out: Activity.
The subject of experiment [2] is SK-OV-3. The experiment can be described thus: Cytotoxicity against human SKOV3 cells assessed as cell growth at 1 uM after 1 to 11 days by MTT assay. As to conditions: read-out: Activity. A general note: Tetrazolium assays rely on reduction of a dye to a coloured formazan, in cell work by metabolically active cells.
Experiment [3] has as its system UO-31. In words: Cytotoxicity against human UO31 cells assessed as cell growth at 1 uM after 1 to 11 days by MTT assay. Conditions: read-out: Activity.
In experiment [4] the test system is UACC-62. In words: Cytotoxicity against human UACC62 cells assessed as cell growth at 100 uM after 1 to 11 days by MTT assay. As to conditions: read-out: Activity.
Experiment [5] has as its system DU-145. The experiment can be described thus: Cytotoxicity against human DU145 cells assessed as cell growth at 100 uM after 1 to 11 days by MTT assay. As to conditions: read-out: Activity.
Experiment [6] concerns NCI/ADR-RES. The experiment can be described thus: Cytotoxicity against human NCI/ADR-RES cells assessed as cell growth at 100 uM after 1 to 11 days by MTT assay. As to conditions: read-out: Activity.
The subject of experiment [7] is NCI-H522. The experiment can be described thus: Cytotoxicity against human NCI-H522 cells after 1 to 11 days by MTT assay.
Experiment [8] concerns HCC 2998. In words: Cytotoxicity against human HCC2998 cells after 1 to 11 days by MTT assay.
Experiment [9] relates to SNB-19. The experiment can be described thus: Cytotoxicity against human SNB19 cells after 1 to 11 days by MTT assay.
In experiment [10] the test system is M14. In words: Cytotoxicity against human M14 cells assessed as cell growth at 1 mM after 1 to 11 days by MTT assay. Conditions: read-out: Activity.
Experiment [11] has as its system IGROV-1. In words: Cytotoxicity against human IGROV1 cells assessed as cell growth at 1 mM after 1 to 11 days by MTT assay. As to conditions: read-out: Activity.
Experiment [12] deals with HL-60(TB). The experiment can be described thus: Cytotoxicity against human HL-60(TB) cells assessed as cell growth at 0.1 uM after 1 to 11 days by MTT assay. Conditions: read-out: Activity.
Experiment [13] relates to SF-539. The experiment can be described thus: Cytotoxicity against human SF539 cells assessed as cell growth at 0.1 uM after 1 to 11 days by MTT assay. Conditions: read-out: Activity.
Where [14] appears, read: read-out: LC50 (the source's name).

As usually defined, the GI50 is the concentration that inhibits growth by half. A high value points to lower sensitivity of the cells. The TGI is the concentration at which net growth stops. Low values mean more potent growth arrest, high ones less potent growth arrest.

On to `O=C1Nc2ncccc2/C1=C1/Nc2ccccc2/C1=N\O`, for which the growth at 1 µM in experiment [1] amounted to 84%; in [2], 93%; in [3] it was 80%. The values for the growth at 100 µM in experiment [4], in [5] and in experiment [6] were 27%, 39% and 57%, respectively. Besides, the GI50 in experiment [7] was over 100 µM; in experiment [8], 5.96 µM; in [9], over 100 µM. Further, the TGI in [7], in experiment [8] and in experiment [9] was over 100 µM each time. Further, the CC50 in experiment [7] (setting [14]), in experiment [8] (setting [14]) and in experiment [9] (setting [14]) was over 100 µM throughout. For the same compound, the growth at 1000 µM in [10] is 21%; in experiment [11] it was 12%. In addition, the growth at 0.1 µM worked out at 103% in experiment [12] and 89% in experiment [13].
